Results reported in article PMC3894558, “Chemical signatures and new drug targets for gametocytocidal drug development” (Scientific Reports, 2014).
Entries after “also recorded” stand apart in the source; their conditions may differ. Read-outs that look alike come from different tables or passages of the source. Starred links: 1 amine or outer side, 2 acyl side, 3 side chain; linkers in the order of their positions; H or OH if unused. Positions of bridges follow the written chain, without caps; N, C: chain ends. Non-standard residues stand in square brackets, D forms with d. Residues, ends and D or L forms follow the SMILES beside them. Chains are numbered I, II in the order given. Actinocin(9to1) = Cc1c2oc3c(C)ccc(C(=O)[*:1])c3nc-2c(C(=O)[*:2])c(N)c1=O; NMeV = CN[C@H](C(=O)O)C(C)C; Sar = CNCC(=O)O

Experiments:
[1] = tested on: P. falciparum 3D7 gametocytes; assay: alamarBlue gametocyte viability assay, strain 3D7; assay type: cell-based, Plasmodium falciparum
[2] = tested on: P. falciparum HB3 gametocytes; assay: alamarBlue gametocyte viability assay, strain HB3; assay type: cell-based, Plasmodium falciparum
[3] = tested on: HepG2 cells; assay: cells; conditions: Homo sapiens; for Emax: HepG2, read-out: % Max response
[4] = tested on: P. falciparum Dd2 gametocytes; assay: alamarBlue gametocyte viability assay, strain Dd2; assay type: cell-based, Plasmodium falciparum
[5] = tested on: HepG2 cells; conditions: for IC50 in HepG2 cells / IC50: 11 concentrations, 1:3 dilution, Inactive = no significant activity at 46 µM; for % Max response: HepG2 cells; for IC50: read-out: IC50 in HepG2 cells
[6] = tested on: Dd2 asexual parasites; parameters: method as in PMID 17116676; conditions: cited from earlier work
[7] = tested on: P. falciparum asexual blood stage parasites; assay: asexual parasite SYBR green assay; assay type: cell-based, Plasmodium falciparum; conditions: for IC50: Plasmodium falciparum, SYBR green assay, read-out: IC50 against asexual parasites
[8] = tested on: mTOR; parameters: method as in PMID 21322566; conditions: cited from earlier work
[9] = parameters: method as in PMID 21322566; conditions: cited from earlier work
[10] = tested on: Plasmodium berghei ANKA; assay: mouse-mosquito transmission model, oocysts per mosquito midgut; assay type: in vivo, Plasmodium berghei in mice / Anopheles stephensi
[11] = tested on: P. falciparum liver stage; parameters: method as in PMID 6285190; conditions: read-out: IC50, P. falciparum development in the liver stage; cited from earlier work
[12] = tested on: P. falciparum asexual blood stage; parameters: method as in PMID 6285190; conditions: cited from earlier work
[13] = tested on: early stages (I and II) of P. falciparum gametocytes; parameters: method as in PMID 6285190; conditions: cited from earlier work
[14] = Plasmodium falciparum, 3D7, P. falciparum 3D7 gametocytes, mean of at least 3 independent experiments, read-out: Gametocyte IC50
[15] = Plasmodium falciparum, HB3, strain profiling, 11 concentrations, 1:3 dilution, three times, read-out: HB3-gametocytes IC50
[16] = Plasmodium falciparum, DD2, strain profiling, 11 concentrations, 1:3 dilution, three times, read-out: Dd2-gametocytes IC50
[17] = P. falciparum 3D7 gametocytes, mean of at least 3 independent experiments, read-out: Gametocyte IC50
[18] = strain profiling, 11 concentrations, 1:3 dilution, three times, read-out: HB3-gametocytes IC50
[19] = strain profiling, 11 concentrations, 1:3 dilution, three times, read-out: Dd2-gametocytes IC50
[20] = Plasmodium falciparum, HB3, read-out: HB3-gametocytes IC50
[21] = Plasmodium falciparum, DD2, read-out: Dd2-gametocytes IC50
[22] = read-out: Gametocyte IC50, P. falciparum 3D7 gametocytes, mean of at least 3 independent experiments
[23] = read-out: HB3-gametocytes IC50, strain profiling, 11 concentrations, 1:3 dilution, three times
[24] = read-out: Dd2-gametocytes IC50, strain profiling, 11 concentrations, 1:3 dilution, three times

Row | IC50 [1, 14] [nM] | IC50 [2, 15] [nM] | IC50 [4, 16] [nM] | IC50 in HepG2 cells [5] | Compound | Emax [3] [%] | other results
1 | 526 | 935 | 1050 | Inactive | COc1cccc2c1C(=O)c1c(O)c3c(c(O)c1C2=O)C[C@@](O)(C(=O)CO)C[C@@H]3O[C@H]1C[C@H](N)[C@H](O)[C@H](C)O1 [Adriamycin] | -35 | 
2 | 73 | 47 | 53 | Inactive | CO[C@H]1O[C@@H]2O[C@@]3(C)CC[C@H]4[C@H](C)CC[C@@H]([C@H]1C)[C@@]24OO3 [Artemether] | 7 | IC50 ([1]; Plasmodium falciparum, 3D7, strain profiling, 11 concentrations, 1:3 dilution, three times, read-out: 3D7-gametocytes IC50): 74 nM
3 | 148 | 74 | 61 | Inactive | C[C@@H]1CC[C@H]2[C@@H](C)C(=O)O[C@@H]3O[C@@]4(C)CC[C@@H]1[C@]32OO4 [Artemisinin] | 18 | 
4 | 77 | 59 | 53 | Inactive | C[C@H]1[C@@H](O)O[C@@H]2O[C@@]3(C)CC[C@H]4[C@H](C)CC[C@@H]1[C@@]24OO3 [Artenimol (DHA), Artenimol] | 20 | 
5 |  |  |  |  | CC(=O)OC[C@H]1O[C@@H]([S-])[C@H](OC(C)=O)[C@@H](OC(C)=O)[C@@H]1OC(C)=O.CCP(CC)CC.[Au+] [Auranofin] |  | IC50 [1, 17]: 935 nM; IC50 [2, 18]: 1050 nM; IC50 [4, 19]: 1180 nM; % Max response [5]: -98%; IC50 [5]: 9350 nM
6 |  |  |  |  | CC1(C)OC2=C(C(=O)c3ccccc3C2=O)[C@H](NCc2ccccc2)[C@@H]1O [CAY10581] |  | IC50 [1, 17]: 743 nM; IC50 [2, 18]: 662 nM; IC50 [4, 19]: 2350 nM; % Max response [5]: -86%; IC50 [5]: 17100 nM
7 |  |  |  |  | CCN(CC)CCCC(C)Nc1ccnc2cc(Cl)ccc12 (stereo not drawn) [Chloroquine diphosphate] |  | IC50 ([1]; Plasmodium falciparum, 3D7, read-out: 3D7-gametocytes IC50): 253 nM; IC50 ([2]; Plasmodium falciparum, HB3, read-out: HB3-gametocytes IC50, strain profiling, 11 concentrations, 1:3 dilution, three times): 935 nM; fold less potent against Dd2 asexual parasites compared to 3D7 [6]: 10 fold; reduction of potency against Dd2 gametocytes compared to 3D7 [4]: 3.7 fold; IC50 ([4]; Plasmodium falciparum, DD2, read-out: Dd2-gametocytes IC50, strain profiling, 11 concentrations, 1:3 dilution, three times): 935 nM
8 |  |  |  | Inactive | COc1ncc(-c2ccc3nccc(-c4ccnnc4)c3c2)cc1NS(=O)(=O)c1ccc(F)cc1F [GSK-458] |  | IC50 [1, 17]: 935 nM; IC50 [2, 18]: 332 nM; IC50 [4, 19]: 1480 nM; % Max response [5]: 33%
9 | 307 | 935 | 526 | Inactive | CN(C)c1ccc2nc3ccc(=[N+](C)C)cc-3sc2c1 [Methylene blue] | -20 | 
10 | 109 | 37 | 53 | Inactive | O=C1C(=O)c2ncccc2-c2cccnc21 [Phanquinone] | 23 | 
11 |  |  |  | Inactive | C=CC1CN2CCC1CC2C(O)c1ccnc2ccc(OC)cc12.C=CC1CN2CCC1CC2C(O)c1ccnc2ccc(OC)cc12.O=S(=O)(O)O (stereo not drawn) [Quinine hemisulfate] |  | IC50 [1, 17]: 345 nM; IC50 [2, 18]: 235 nM; IC50 [4, 19]: 83 nM; % Max response [5]: 2%
12 | 935 |  |  | Inactive | CC(=O)Nc1cccc(-n2c(=O)n(C3CC3)c(=O)c3c(Nc4ccc(I)cc4F)n(C)c(=O)c(C)c32)c1 [Trametinib] | 14 | 

Row | Compound | IC50 [1, 14] [nM] | IC50 [2, 15] [nM] | IC50 [4, 16] [nM] | IC50 in HepG2 cells [5] | Emax [3] [%] | other results
13 | CCN(CCO)CCCOc1ccc2c(Nc3cc(CC(=O)Nc4cccc(F)c4)n[nH]3)ncnc2c1 [AZD-1152-HQPA] | 743 | 1480 | 1480 | Inactive | 11 | 
14 | C[C@H]1[C@H](OC(=O)CCC(=O)O)O[C@@H]2O[C@@]3(C)CC[C@H]4[C@H](C)CC[C@@H]1[C@@]24OO3 [Artesunate] | 59 | 47 | 30 | Inactive | 18 | 
15 | Cc1c2oc3c(C)ccc(C(=O)N[C@@H]4C(=O)N[C@H](C(C)C)C(=O)N5CCC[C@H]5C(=O)N(C)CC(=O)N(C)[C@@H](C(C)C)C(=O)O[C@@H]4C)c3nc-2c(C(=O)N[C@@H]2C(=O)N[C@H](C(C)C)C(=O)N3CCC[C@H]3C(=O)N(C)CC(=O)N(C)[C@@H](C(C)C)C(=O)O[C@@H]2C)c(N)c1=O [Dactinomycin] (I: T[dV]P[Sar][NMeV] / II: T[dV]P[Sar][NMeV]; ester I:1-I:C, II:1-II:C; linker I:N-II:N via Actinocin(9to1)) |  |  |  | Inactive | 1 | IC50 ([1]; Plasmodium falciparum, 3D7, read-out: Gametocyte IC50): 15 nM; IC50 [2, 20]: 19 nM; IC50 [4, 21]: 33 nM
16 | S=C(SSC(=S)N1CCCCC1)N1CCCCC1 [Dicyclopentamethylenethiuram disulfide] |  |  |  | Inactive | 0 | IC50 ([1]; Plasmodium falciparum, P. falciparum 3D7 gametocytes, mean of at least 3 independent experiments, read-out: Gametocyte IC50): 274 nM; IC50 [2, 20]: 743 nM; IC50 [4, 21]: 743 nM
17 | CN(C)C(=S)SSC(=S)N(C)C [Thiram] | 83 | 148 |  | Inactive | 23 | IC50 [4, 21]: 148 nM
18 | CCC(=O)N1CCN(c2ccc(-n3c(=O)ccc4cnc5ccc(-c6cnc7ccccc7c6)cc5c43)cc2C(F)(F)F)CC1 [Torin 1, 1-[4-[4-(1-Oxopropyl)-1-piperazinyl]-3-(trifluoromethyl)phenyl]-9-(3-quinolinyl)-benzo[h]-1,6-naphthyridin-2(1H)-one] |  | 3720 | 5260 |  |  | times less potent than Torin 2 against asexual parasites [7]: […]; IC50 [7]: 215 nM; fold less potent than Torin 2 against gametocytes [1]: […]; IC50 ([1]; Plasmodium falciparum, 3D7, read-out: 3D7-gametocytes IC50, strain profiling, 11 concentrations, 1:3 dilution, three times): 6620 nM; IC50 ([1]; Plasmodium falciparum, 3D7, read-out: Gametocyte IC50, P. falciparum 3D7 gametocytes, mean of at least 3 independent experiments): 1600 nM; IC50 [8]: […]
19 | Nc1ccc(-c2ccc3ncc4ccc(=O)n(-c5cccc(C(F)(F)F)c5)c4c3c2)cn1 [Torin 2, 9-(6-Amino-3-pyridinyl)-1-[3-(trifluoromethyl)phenyl]-benzo[h]-1,6-naphthyridin-2(1H)-one] | 8 | 15 | 12 |  | -46 | oral bioavailability [9]: 51%; IC50 [7]: 2.75 nM; exflagellation just prior to mosquito feed, drug- vs vehicle-treated mice ([10]; 1.5 hrs after drug treatment): no difference; also recorded: equivalent to that of the vehicle-treated controls; oocyst production in fed mosquitoes ([10]; single dose 2 mg/kg i.v.): significantly reduced; oocyst production in fed mosquitoes ([10]; single dose 4 mg/kg i.v., 4 mg/kg): almost completely eliminated; also recorded: nearly complete elimination; oocyst production in fed mosquitoes ([10]; two 4 mg/kg doses i.v. 3 hrs apart, feed 1.5 hrs after final treatment): completely block; also recorded: completely prevented; IC50 [11]: 1.1 nM; IC50 ([3]; HepG2, read-out: IC50 in HepG2 cells): 9350 nM; IC50 [12]: 1.4 nM; IC50 [8]: […]; IC50 [13]: 6.6 nM
20 | Monensin sodium |  |  |  | Inactive |  | IC50 [1, 22]: 254 nM; IC50 [2, 23]: 264 nM; IC50 [4, 24]: 372 nM; % Max response [5]: 40%
21 | Plicamycin |  |  |  | Inactive |  | IC50 [1, 22]: 833 nM; IC50 [2, 23]: 2960 nM; IC50 [4, 24]: 2350 nM; % Max response [5]: 3%
